{"source": "PubChem BioAssay (NCI)", "assay_in_all_cases": "DTP human tumour cell line panel, 384-well format", "key": {"786-0 renal": {"tested_on": "786-0 renal"}, "A498 renal": {"tested_on": "A498 renal"}, "A549 NSCLC": {"tested_on": "A549 NSCLC"}, "ACHN renal": {"tested_on": "ACHN renal"}, "BT-549 breast": {"tested_on": "BT-549 breast"}, "CCRF-CEM leukemia": {"tested_on": "CCRF-CEM leukemia"}, "DU-145 prostate": {"tested_on": "DU-145 prostate"}, "EKVX NSCLC": {"tested_on": "EKVX NSCLC"}, "HCC-2998 colon": {"tested_on": "HCC-2998 colon"}, "HCT-116 colon": {"tested_on": "HCT-116 colon"}, "HCT-15 colon": {"tested_on": "HCT-15 colon"}, "HL-60(TB) leukemia": {"tested_on": "HL-60(TB) leukemia"}, "HOP-62 NSCLC": {"tested_on": "HOP-62 NSCLC"}, "HS 578T breast": {"tested_on": "HS 578T breast"}, "HT29 colon": {"tested_on": "HT29 colon"}, "IGROV1 ovarian": {"tested_on": "IGROV1 ovarian"}, "K-562 leukemia": {"tested_on": "K-562 leukemia"}, "KM12 colon": {"tested_on": "KM12 colon"}, "LOX IMVI melanoma": {"tested_on": "LOX IMVI melanoma"}, "MALME-3M melanoma": {"tested_on": "MALME-3M melanoma"}, "MDA-MB-231 breast": {"tested_on": "MDA-MB-231 breast"}, "MDA-MB-435 melanoma": {"tested_on": "MDA-MB-435 melanoma"}, "MDA-MB-468 breast": {"tested_on": "MDA-MB-468 breast"}, "MOLT-4 leukemia": {"tested_on": "MOLT-4 leukemia"}, "NCI-H226 lung": {"tested_on": "NCI-H226 lung"}, "NCI-H23 lung": {"tested_on": "NCI-H23 lung"}, "NCI-H460 NSCLC": {"tested_on": "NCI-H460 NSCLC"}, "NCI-H522 lung": {"tested_on": "NCI-H522 lung"}, "OVCAR-5 ovarian": {"tested_on": "OVCAR-5 ovarian"}, "OVCAR-8 ovarian": {"tested_on": "OVCAR-8 ovarian"}, "PC-3 prostate": {"tested_on": "PC-3 prostate"}, "RXF 393 renal": {"tested_on": "RXF 393 renal"}, "SF-295 CNS": {"tested_on": "SF-295 CNS"}, "SF-539 CNS": {"tested_on": "SF-539 CNS"}, "SK-MEL-2 melanoma": {"tested_on": "SK-MEL-2 melanoma"}, "SK-MEL-28 melanoma": {"tested_on": "SK-MEL-28 melanoma"}, "SK-MEL-5 melanoma": {"tested_on": "SK-MEL-5 melanoma"}, "SK-OV-3 ovarian": {"tested_on": "SK-OV-3 ovarian"}, "SN12C renal": {"tested_on": "SN12C renal"}, "SNB-19 CNS": {"tested_on": "SNB-19 CNS"}, "SR leukemia": {"tested_on": "SR leukemia"}, "SW-620 colon": {"tested_on": "SW-620 colon"}, "T-47D breast": {"tested_on": "T-47D breast"}, "TK-10 renal": {"tested_on": "TK-10 renal"}, "U251 glioblastoma": {"tested_on": "U251 glioblastoma"}, "UACC-257 melanoma": {"tested_on": "UACC-257 melanoma"}, "UACC-62 melanoma": {"tested_on": "UACC-62 melanoma"}}, "note": "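Abbreviation: GI50, concentration required for 50% inhibition of growth. The concentration for full growth arrest is given as TGI.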", "data": [{"smiles": "C=CC(=O)Nc1cccc(Oc2nc(Nc3ccc(N4CCN(C)CC4)cc3)nc3ccsc23)c1", "values": [{"measurement": "GI50", "setting": "786-0 renal", "value": 1460, "unit": "nM"}, {"measurement": "TGI", "setting": "786-0 renal", "value": 2810, "unit": "nM"}, {"measurement": "GI50", "setting": "A498 renal", "value": 1220, "unit": "nM"}, {"measurement": "TGI", "setting": "A498 renal", "value": 2490, "unit": "nM"}, {"measurement": "GI50", "setting": "A549 NSCLC", "value": 1640, "unit": "nM"}, {"measurement": "TGI", "setting": "A549 NSCLC", "value": 3500, "unit": "nM"}, {"measurement": "GI50", "setting": "ACHN renal", "value": 1260, "unit": "nM"}, {"measurement": "TGI", "setting": "ACHN renal", "value": 2690, "unit": "nM"}, {"measurement": "GI50", "setting": "BT-549 breast", "value": 1380, "unit": "nM"}, {"measurement": "TGI", "setting": "BT-549 breast", "value": 2690, "unit": "nM"}, {"measurement": "GI50", "setting": "CCRF-CEM leukemia", "value": 1500, "unit": "nM"}, {"measurement": "TGI", "setting": "CCRF-CEM leukemia", "value": 2840, "unit": "nM"}, {"measurement": "GI50", "setting": "DU-145 prostate", "value": 1420, "unit": "nM"}, {"measurement": "TGI", "setting": "DU-145 prostate", "value": 3210, "unit": "nM"}, {"measurement": "GI50", "setting": "EKVX NSCLC", "value": 1310, "unit": "nM"}, {"measurement": "TGI", "setting": "EKVX NSCLC", "value": 3840, "unit": "nM"}, {"measurement": "GI50", "setting": "HCC-2998 colon", "value": 1700, "unit": "nM"}, {"measurement": "TGI", "setting": "HCC-2998 colon", "value": 3090, "unit": "nM"}, {"measurement": "GI50", "setting": "HCT-116 colon", "value": 1680, "unit": "nM"}, {"measurement": "TGI", "setting": "HCT-116 colon", "value": 3090, "unit": "nM"}, {"measurement": "GI50", "setting": "HCT-15 colon", "value": 1560, "unit": "nM"}, {"measurement": "TGI", "setting": "HCT-15 colon", "value": 3030, "unit": "nM"}, {"measurement": "GI50", "setting": "HL-60(TB) leukemia", "value": 1600, "unit": "nM"}, {"measurement": "TGI", "setting": "HL-60(TB) leukemia", "value": 2970, "unit": "nM"}, {"measurement": "GI50", "setting": "HOP-62 NSCLC", "value": 2000, "unit": "nM"}, {"measurement": "TGI", "setting": "HOP-62 NSCLC", "value": 4540, "unit": "nM"}, {"measurement": "GI50", "setting": "HS 578T breast", "value": 1450, "unit": "nM"}, {"measurement": "TGI", "setting": "HS 578T breast", "value": 2800, "unit": "nM"}, {"measurement": "GI50", "setting": "HT29 colon", "value": 1740, "unit": "nM"}, {"measurement": "TGI", "setting": "HT29 colon", "value": 3160, "unit": "nM"}, {"measurement": "GI50", "setting": "IGROV1 ovarian", "value": 1060, "unit": "nM"}, {"measurement": "TGI", "setting": "IGROV1 ovarian", "value": 2260, "unit": "nM"}, {"measurement": "GI50", "setting": "K-562 leukemia", "value": 1380, "unit": "nM"}, {"measurement": "TGI", "setting": "K-562 leukemia", "value": 2720, "unit": "nM"}, {"measurement": "GI50", "setting": "KM12 colon", "value": 1590, "unit": "nM"}, {"measurement": "TGI", "setting": "KM12 colon", "value": 3120, "unit": "nM"}, {"measurement": "GI50", "setting": "LOX IMVI melanoma", "value": 1810, "unit": "nM"}, {"measurement": "TGI", "setting": "LOX IMVI melanoma", "value": 3220, "unit": "nM"}, {"measurement": "GI50", "setting": "MALME-3M melanoma", "value": 1760, "unit": "nM"}, {"measurement": "TGI", "setting": "MALME-3M melanoma", "value": 3160, "unit": "nM"}, {"measurement": "GI50", "setting": "MDA-MB-231 breast", "value": 1700, "unit": "nM"}, {"measurement": "TGI", "setting": "MDA-MB-231 breast", "value": 3330, "unit": "nM"}, {"measurement": "GI50", "setting": "MDA-MB-435 melanoma", "value": 1780, "unit": "nM"}, {"measurement": "TGI", "setting": "MDA-MB-435 melanoma", "value": 3200, "unit": "nM"}, {"measurement": "GI50", "setting": "MDA-MB-468 breast", "value": 191, "unit": "nM"}, {"measurement": "TGI", "setting": "MDA-MB-468 breast", "value": 629, "unit": "nM"}, {"measurement": "GI50", "setting": "MOLT-4 leukemia", "value": 1530, "unit": "nM"}, {"measurement": "TGI", "setting": "MOLT-4 leukemia", "value": 2890, "unit": "nM"}, {"measurement": "GI50", "setting": "NCI-H226 lung", "value": 1570, "unit": "nM"}, {"measurement": "TGI", "setting": "NCI-H226 lung", "value": 3880, "unit": "nM"}, {"measurement": "GI50", "setting": "NCI-H23 lung", "value": 1940, "unit": "nM"}, {"measurement": "TGI", "setting": "NCI-H23 lung", "value": 5370, "unit": "nM"}, {"measurement": "GI50", "setting": "NCI-H460 NSCLC", "value": 1620, "unit": "nM"}, {"measurement": "TGI", "setting": "NCI-H460 NSCLC", "value": 3030, "unit": "nM"}, {"measurement": "GI50", "setting": "NCI-H522 lung", "value": 334, "unit": "nM"}, {"measurement": "TGI", "setting": "NCI-H522 lung", "value": 1410, "unit": "nM"}, {"measurement": "GI50", "setting": "OVCAR-5 ovarian", "value": 2020, "unit": "nM"}, {"measurement": "TGI", "setting": "OVCAR-5 ovarian", "value": 5790, "unit": "nM"}, {"measurement": "GI50", "setting": "OVCAR-8 ovarian", "value": 1590, "unit": "nM"}, {"measurement": "TGI", "setting": "OVCAR-8 ovarian", "value": 3000, "unit": "nM"}, {"measurement": "GI50", "setting": "PC-3 prostate", "value": 1700, "unit": "nM"}, {"measurement": "TGI", "setting": "PC-3 prostate", "value": 3120, "unit": "nM"}, {"measurement": "GI50", "setting": "RXF 393 renal", "value": 1230, "unit": "nM"}, {"measurement": "TGI", "setting": "RXF 393 renal", "value": 2490, "unit": "nM"}, {"measurement": "GI50", "setting": "SF-295 CNS", "value": 5010, "unit": "nM"}, {"measurement": "TGI", "setting": "SF-295 CNS", "value": 15700, "unit": "nM"}, {"measurement": "GI50", "setting": "SF-539 CNS", "value": 1750, "unit": "nM"}, {"measurement": "TGI", "setting": "SF-539 CNS", "value": 3150, "unit": "nM"}, {"measurement": "GI50", "setting": "SK-MEL-2 melanoma", "value": 1610, "unit": "nM"}, {"measurement": "TGI", "setting": "SK-MEL-2 melanoma", "value": 2970, "unit": "nM"}, {"measurement": "GI50", "setting": "SK-MEL-28 melanoma", "value": 1740, "unit": "nM"}, {"measurement": "TGI", "setting": "SK-MEL-28 melanoma", "value": 3140, "unit": "nM"}, {"measurement": "GI50", "setting": "SK-MEL-5 melanoma", "value": 1840, "unit": "nM"}, {"measurement": "TGI", "setting": "SK-MEL-5 melanoma", "value": 3250, "unit": "nM"}, {"measurement": "GI50", "setting": "SK-OV-3 ovarian", "value": 1570, "unit": "nM"}, {"measurement": "TGI", "setting": "SK-OV-3 ovarian", "value": 4190, "unit": "nM"}, {"measurement": "GI50", "setting": "SN12C renal", "value": 1350, "unit": "nM"}, {"measurement": "TGI", "setting": "SN12C renal", "value": 2750, "unit": "nM"}, {"measurement": "GI50", "setting": "SNB-19 CNS", "value": 1820, "unit": "nM"}, {"measurement": "TGI", "setting": "SNB-19 CNS", "value": 3700, "unit": "nM"}, {"measurement": "GI50", "setting": "SR leukemia", "value": 857, "unit": "nM"}, {"measurement": "TGI", "setting": "SR leukemia", "value": 1950, "unit": "nM"}, {"measurement": "GI50", "setting": "SW-620 colon", "value": 1740, "unit": "nM"}, {"measurement": "TGI", "setting": "SW-620 colon", "value": 3140, "unit": "nM"}, {"measurement": "GI50", "setting": "T-47D breast", "value": 1500, "unit": "nM"}, {"measurement": "TGI", "setting": "T-47D breast", "value": 2840, "unit": "nM"}, {"measurement": "GI50", "setting": "TK-10 renal", "value": 957, "unit": "nM"}, {"measurement": "TGI", "setting": "TK-10 renal", "value": 2250, "unit": "nM"}, {"measurement": "GI50", "setting": "U251 glioblastoma", "value": 1650, "unit": "nM"}, {"measurement": "TGI", "setting": "U251 glioblastoma", "value": 3060, "unit": "nM"}, {"measurement": "GI50", "setting": "UACC-257 melanoma", "value": 1520, "unit": "nM"}, {"measurement": "TGI", "setting": "UACC-257 melanoma", "value": 2870, "unit": "nM"}, {"measurement": "GI50", "setting": "UACC-62 melanoma", "value": 1520, "unit": "nM"}, {"measurement": "TGI", "setting": "UACC-62 melanoma", "value": 2870, "unit": "nM"}]}]}
